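These data come from cells grown in 96-well plates and exposed to compound for 48 hours at five concentrations. Abbreviation: GI50, concentration required for 50% inhibition of growth.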 Activity calls are given as the source filed them. No stated cut-off is given here; in the data, active = GI50 up to about 1.1 µM and inactive = higher.
What was measured:
Assay in all cases: inhibition of tumour cell growth, NCI panel, 48 h
786-0 = system: 786-0
A498 = system: A498
A549 = system: A549
ACHN = system: ACHN
BT-549 = system: BT-549
CAKI-1 = system: CAKI-1
CCRF-CEM = system: CCRF-CEM
COLO 205 = system: COLO 205
DU-145 = system: DU-145
EKVX = system: EKVX
HCC 2998 = system: HCC 2998
HCT-116 = system: HCT-116
HCT-15 = system: HCT-15
HL-60 = system: HL-60
HOP-62 = system: HOP-62
HOP-92 = system: HOP-92
HT-29 = system: HT-29
Hs-578T = system: Hs-578T
IGROV-1 = system: IGROV-1
K562 = system: K562
KM12 = system: KM12
LOX IMVI = system: LOX IMVI
M14 = system: M14
MCF7 = system: MCF7
MDA-MB-231 = system: MDA-MB-231
MDA-MB-435 = system: MDA-MB-435
MDA-N = system: MDA-N
MOLT-4 = system: MOLT-4
Malme-3M = system: Malme-3M
NCI-H226 = system: NCI-H226
NCI-H23 = system: NCI-H23
NCI-H460 = system: NCI-H460
NCI-H522 = system: NCI-H522
NCI/ADR-RES = system: NCI/ADR-RES
OVCAR-3 = system: OVCAR-3
OVCAR-4 = system: OVCAR-4
OVCAR-5 = system: OVCAR-5
OVCAR-8 = system: OVCAR-8
PC-3 = system: PC-3
RPMI-8226 = system: RPMI-8226
RXF 393 = system: RXF 393
SF-268 = system: SF-268
SF-295 = system: SF-295
SF-539 = system: SF-539
SK-MEL-28 = system: SK-MEL-28
SK-MEL-2 = system: SK-MEL-2
SK-MEL-5 = system: SK-MEL-5
SN12C = system: SN12C
SNB-19 = system: SNB-19
SNB-75 = system: SNB-75
SR = system: SR
SW-620 = system: SW-620
T47D = system: T47D
TK-10 = system: TK-10
U-251 = system: U-251
UACC-257 = system: UACC-257
UACC-62 = system: UACC-62
UO-31 = system: UO-31
SK-OV-3 = system: SK-OV-3

CCCCCC(O)C(O)CCC[C@H](O)[C@H]1CC[C@H]([C@H]2CC[C@H]([C@H](O)CCCCCCCCCCCCC3=C[C@H](C)OC3=O)O2)O1 (some centres undefined)
GI50 (786-0): 3840 nM (inactive)
GI50 (A498): 2650 nM (inactive)
GI50 (A549): 2210 nM (inactive)
GI50 (ACHN): 1590 nM (inactive)
GI50 (BT-549): 8930 nM (inactive)
GI50 (CAKI-1): 5070 nM (inactive)
GI50 (CCRF-CEM): 1090 nM (active)
GI50 (COLO 205): 3980 nM (inactive)
GI50 (DU-145): 9180 nM (inactive)
GI50 (EKVX): 2620 nM (inactive)
GI50 (HCC 2998): 11000 nM (inactive)
GI50 (HCT-116): 1360 nM (inactive)
GI50 (HCT-15): 3810 nM
GI50 (HL-60): 1570 nM (inactive)
GI50 (HOP-62): 5200 nM (inactive)
GI50 (HOP-92): 23400 nM (inactive)
GI50 (HT-29): 2630 nM (inactive)
GI50 (Hs-578T): 2910 nM (inactive)
GI50 (IGROV-1): 3240 nM (inactive)
GI50 (K562): 1380 nM (inactive)
GI50 (KM12): 2210 nM (inactive)
GI50 (LOX IMVI): 1210 nM (inactive)
GI50 (M14): 3490 nM (inactive)
GI50 (MCF7): 1900 nM (inactive)
GI50 (MDA-MB-231): 4320 nM (inactive)
GI50 (MDA-MB-435): 1500 nM (inactive)
GI50 (MDA-N): 2830 nM (inactive)
GI50 (MOLT-4): 2320 nM (inactive)
GI50 (Malme-3M): 11900 nM (inactive)
GI50 (NCI-H226): 2490 nM (inactive)
GI50 (NCI-H23): 1370 nM (inactive)
GI50 (NCI-H460): 2430 nM (inactive)
GI50 (NCI-H522): 4880 nM (inactive)
GI50 (NCI/ADR-RES): 853 nM (active)
GI50 (OVCAR-3): 2470 nM (inactive)
GI50 (OVCAR-4): 5110 nM (inactive)
GI50 (OVCAR-5): 15700 nM (inactive)
GI50 (OVCAR-8): 2990 nM (inactive)
GI50 (PC-3): 2940 nM (inactive)
GI50 (RPMI-8226): 1280 nM (inactive)
GI50 (RXF 393): 7330 nM (inactive)
GI50 (SF-268): 1830 nM (inactive)
GI50 (SF-295): 1970 nM (inactive)
GI50 (SF-539): 5700 nM (inactive)
GI50 (SK-MEL-28): 2560 nM (inactive)
GI50 (SK-MEL-2): 1760 nM (inactive)
GI50 (SK-MEL-5): 1220 nM (inactive)
GI50 (SN12C): 3870 nM (inactive)
GI50 (SNB-19): 3140 nM (inactive)
GI50 (SNB-75): 5430 nM (inactive)
GI50 (SR): 4150 nM (inactive)
GI50 (SW-620): 3440 nM (inactive)
GI50 (T47D): 7190 nM (inactive)
GI50 (TK-10): 2860 nM (inactive)
GI50 (U-251): 3730 nM (inactive)
GI50 (UACC-257): 597 nM (active)
GI50 (UACC-62): 1710 nM (inactive)
GI50 (UO-31): 1850 nM (inactive)

CN(C)CCn1c(=O)c2ccc3c4c(nn3CCN(C)C)c3cc([N+](=O)[O-])ccc3n(c1=O)c24
GI50 (786-0): < 12.4 nM (active)
GI50 (A498): 317 nM (active)
GI50 (A549): 26.4 nM (active)
GI50 (ACHN): 38.4 nM (active)
GI50 (BT-549): 906 nM (active)
GI50 (CAKI-1): 48.1 nM (active)
GI50 (CCRF-CEM): < 12.5 nM (active)
GI50 (COLO 205): 54.8 nM (active)
GI50 (DU-145): 50.8 nM (active)
GI50 (EKVX): 115 nM (active)
GI50 (HCC 2998): 41.1 nM (active)
GI50 (HCT-116): < 15.4 nM (active)
GI50 (HCT-15): 26.1 nM
GI50 (HL-60): 90 nM (active)
GI50 (HOP-62): < 21.2 nM (active)
GI50 (HOP-92): 800 nM (active)
GI50 (HT-29): < 11.2 nM (active)
GI50 (Hs-578T): 144 nM (active)
GI50 (IGROV-1): 70.8 nM (active)
GI50 (K562): 39.4 nM (active)
GI50 (KM12): 26.3 nM (active)
GI50 (LOX IMVI): 44.7 nM (active)
GI50 (M14): 222 nM (active)
GI50 (MCF7): 66.7 nM (active)
GI50 (MDA-MB-231): 92.9 nM (active)
GI50 (MDA-MB-435): 67.5 nM (active)
GI50 (MDA-N): 72.4 nM (active)
GI50 (MOLT-4): < 10 nM (active)
GI50 (Malme-3M): 328 nM (active)
GI50 (NCI-H226): 518 nM (active)
GI50 (NCI-H23): 105 nM (active)
GI50 (NCI-H460): < 12.8 nM (active)
GI50 (NCI-H522): < 10 nM (active)
GI50 (NCI/ADR-RES): 85.9 nM (active)
GI50 (OVCAR-3): 88.3 nM (active)
GI50 (OVCAR-4): 18.9 nM (active)
GI50 (OVCAR-5): < 25.3 nM (active)
GI50 (OVCAR-8): 49 nM (active)
GI50 (PC-3): 64.1 nM (active)
GI50 (RPMI-8226): 19.4 nM (active)
GI50 (RXF 393): 120 nM (active)
GI50 (SF-268): < 25.6 nM (active)
GI50 (SF-295): 58.5 nM (active)
GI50 (SF-539): 394 nM (active)
GI50 (SK-MEL-28): 510 nM (active)
GI50 (SK-MEL-2): 133 nM (active)
GI50 (SK-MEL-5): 594 nM (active)
GI50 (SK-OV-3): 78.3 nM (active)
GI50 (SN12C): < 20.7 nM (active)
GI50 (SNB-19): 43.8 nM (active)
GI50 (SR): < 10 nM (active)
GI50 (SW-620): < 13.4 nM (active)
GI50 (T47D): 249 nM (active)
GI50 (TK-10): 212 nM (active)
GI50 (U-251): 28.1 nM (active)
GI50 (UACC-257): 617 nM (active)
GI50 (UACC-62): 337 nM (active)
GI50 (UO-31): 66.1 nM (active)

Cn1c2ccccc2c2[nH]c3ccccc3c(=O)c21
GI50 (786-0): > 100000 nM (inactive)
GI50 (A498): > 100000 nM (inactive)
GI50 (A549): > 100000 nM (inactive)
GI50 (ACHN): > 100000 nM (inactive)
GI50 (BT-549): > 100000 nM (inactive)
GI50 (CAKI-1): > 100000 nM (inactive)
GI50 (CCRF-CEM): > 100000 nM (inactive)
GI50 (COLO 205): > 100000 nM (inactive)
GI50 (DU-145): > 100000 nM (inactive)
GI50 (EKVX): > 100000 nM (inactive)
GI50 (HCC 2998): > 100000 nM (inactive)
GI50 (HCT-116): 53300 nM (inactive)
GI50 (HCT-15): > 100000 nM
GI50 (HL-60): > 100000 nM (inactive)
GI50 (HOP-62): > 100000 nM (inactive)
GI50 (HOP-92): 65500 nM (inactive)
GI50 (HT-29): > 100000 nM (inactive)
GI50 (Hs-578T): > 100000 nM (inactive)
GI50 (IGROV-1): > 100000 nM (inactive)
GI50 (K562): > 100000 nM (inactive)
GI50 (KM12): > 100000 nM (inactive)
GI50 (LOX IMVI): 31800 nM (inactive)
GI50 (M14): > 100000 nM (inactive)
GI50 (MCF7): > 100000 nM (inactive)
GI50 (MDA-MB-231): > 100000 nM (inactive)
GI50 (MDA-MB-435): > 100000 nM (inactive)
GI50 (MDA-N): > 100000 nM (inactive)
GI50 (MOLT-4): 50600 nM (inactive)
GI50 (Malme-3M): > 100000 nM (inactive)
GI50 (NCI-H226): > 100000 nM (inactive)
GI50 (NCI-H23): > 100000 nM (inactive)
GI50 (NCI-H460): > 100000 nM (inactive)
GI50 (NCI/ADR-RES): > 100000 nM (inactive)
GI50 (OVCAR-3): > 100000 nM (inactive)
GI50 (OVCAR-4): > 10000 nM (inactive)
GI50 (OVCAR-5): > 100000 nM (inactive)
GI50 (OVCAR-8): > 100000 nM (inactive)
GI50 (PC-3): > 100000 nM (inactive)
GI50 (RPMI-8226): > 100000 nM (inactive)
GI50 (RXF 393): > 100000 nM (inactive)
GI50 (SF-268): > 100000 nM (inactive)
GI50 (SF-295): > 100000 nM (inactive)
GI50 (SF-539): > 100000 nM (inactive)
GI50 (SK-MEL-28): > 100000 nM (inactive)
GI50 (SK-MEL-2): > 100000 nM (inactive)
GI50 (SK-MEL-5): 46200 nM (inactive)
GI50 (SK-OV-3): > 100000 nM (inactive)
GI50 (SN12C): > 100000 nM (inactive)
GI50 (SNB-19): 93300 nM (inactive)
GI50 (SNB-75): 69200 nM (inactive)
GI50 (SR): > 100000 nM (inactive)
GI50 (SW-620): 88300 nM (inactive)
GI50 (T47D): 43000 nM (inactive)
GI50 (TK-10): > 100000 nM (inactive)
GI50 (U-251): > 100000 nM (inactive)
GI50 (UACC-257): > 100000 nM (inactive)
GI50 (UACC-62): > 100000 nM (inactive)
GI50 (UO-31): > 100000 nM (inactive)

Reference: ChEMBL document CHEMBL1201862, “PubChem BioAssay data set” (2004)
